These results are taken from US20120232062A1, “AZAINDAZOLES TO TREAT FLAVIVIRIDAE VIRUS INFECTION” (EIGER BIOPHARMACEUTICALS, INC., priority 2009, published 2012).

The target in the series is T1, CYP 2D6 (Homo sapiens, UniProt P10635).
T1 construct: For human liver microsome solution, a stock solution (20 mg/mL (4×final)) is used; from tissue; host or cells: human liver microsomes
Description: CYP inhibition testing, CYP 2D6. Format: in vitro ADME. The following applies: human liver microsomes; >75 = low level of inhibition. Here is the method: Select compounds are tested for CYP inhibition against five different CYP enzymes: CYP 1A2, CYP 2C9, CYP 2C19, CYP 2D6, CYP 3A4. Individual CYP enzymes are incubated with corresponding substrates with no inhibitor (negative control). Individual CYP enzymes are then incubated with corresponding substrates in the presence of test compound. […] Values of 70>v, w, x, y, z>30 indicate moderate level of inhibition of the corresponding enzyme.
The following reagents are used: Sodium Phosphate, monobasic; Sodium Phosphate, dibasic; β-Nicotinamide Adenine Dinucleotide Phosphate-Reduced (NADPH), Roche; Milli-Q Water; 0.1 M Potassium phosphate buffer (K-buffer), pH 7.4. The following stock solutions are used. Stock A (136.5 g of monobasic potassium phosphate in 1 L of Milli-Q water (1.0 M)). Stock B (174.2 g of dibasic potassium phosphate in 1 L of Milli-Q water (1.0 M)). 40.5 mL of Stock B is mixed with 9.5 mL of Stock A, and the total volume brought near 500 mL with Milli-Q water to give 0.1 M potassium phosphate buffer. The buffer is titrated with KOH or H3PO4 to pH 7.4. To prepare a cofactor buffer (4×, 8 mM NADPH), 66.7 mg of NADPH tetrasodium salt is dissolved in 10 mL of K-buffer. For human liver microsome solution, a stock solution (20 mg/mL (4×final)) is used.
The following Positive control stock solutions are prepared: 0.3 mM α-Naphthoflavone (MW: 272.3, 0.0817 mg of α-Naphthoflavone in 1 mL DMSO), 10 mM Sulfaphenazole (MW: 314.4, 3.14 mg of sulfaphenazole in 1 mL DMSO) 100 mM Omeprazole (MW: 345.4, 34.54 mg of omeprazole in 1 mL DMSO), 2.5 mM Quinidine (MW: 324, 0.81 mg of quinidine in 1 mL DMSO), and 2.5 mM Ketoconazole (MW: 531.4, 1.33 mg of ketoconazole in 1 mL DMSO).
The following substrate stock solutions are prepared: 6 mM Phenacetin (MW: 179.22, 1.075 mg of phenacetin in 1 mL can), 10 mM Diclofenac (MW: 318.83, 3.18 mg of Diclofenac in 1 ml H2O), 35 mM S-Mephenyloin (MW: 218.25, 7.64 mg of s-mephenyloin in 1 mL ACN 10 mM Bufuralol (MW: 297.82, 2.98 mg of Bufuralol in 1 ml H2O), 1 mM Midazolam (MW: 325.77, 0.326 mg of midazolam in 1 mL can), and 10 mM Testosterone (MW: 288.42, 2.88 mg of Testosterone in 1 ml ACN.
Test compounds and reference compounds (positive control) are prepared in 0.2 mg/ml liver microsome solution. A 0.2 mg/ml liver microsome solution (2×final) is prepared from stock solution by adding 10 μL microsome stock solutions (20 mg/ml) in 990 μL K-buffer. 8 μL of 10 mM test compound stock solution (in DMSO or other solvent at various concentrations) is diluted with 12 μL ACN to make 4 mM solutions. 1:3 serial dilutions are performed using DMSO/ACN (40:60) from 4 mM solution further down seven concentration points (400×final): 4 mM, 1.33 mM, 0.44 mM, 0.148 mM, […], 0.0165 mM, 0.00549 mM, 0 mM. […]
(Liver microsomes are a subcellular fraction often used to study metabolism.)

T1 sequence (P10635 whole entry): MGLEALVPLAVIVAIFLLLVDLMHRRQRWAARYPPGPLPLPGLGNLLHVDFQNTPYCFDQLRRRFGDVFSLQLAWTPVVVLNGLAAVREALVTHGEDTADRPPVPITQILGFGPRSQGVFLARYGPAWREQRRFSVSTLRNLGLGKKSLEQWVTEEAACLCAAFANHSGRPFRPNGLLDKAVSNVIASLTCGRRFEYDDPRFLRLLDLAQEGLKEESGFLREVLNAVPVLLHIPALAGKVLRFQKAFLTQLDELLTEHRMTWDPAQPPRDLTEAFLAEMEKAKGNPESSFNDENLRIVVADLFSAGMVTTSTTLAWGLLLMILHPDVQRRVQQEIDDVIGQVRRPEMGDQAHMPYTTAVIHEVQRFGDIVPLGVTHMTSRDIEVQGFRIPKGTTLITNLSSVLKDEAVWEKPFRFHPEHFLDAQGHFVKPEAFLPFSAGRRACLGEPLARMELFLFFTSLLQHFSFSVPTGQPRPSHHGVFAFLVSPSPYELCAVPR

For the molecule `Cn1nc(CCCN2CCCC2)c2ccc(N3CCCCCCC3)nc21` [compound 1171], the “CYP (% negative controls) 2D6” value is 62 % negative controls.
As for `Cn1nc(C(=O)NC2CCNCC2)c2ccc(N3CCCCCC3)nc21.O=C(O)C(F)(F)F.O=C(O)C(F)(F)F` [compound 697], the “CYP (% negative controls) 2D6” value is 80 % negative controls.
`Cn1nc(C(=O)NC2CCN(CCN3CCCCC3)CC2)c2ccc(N3CCCCCC3)nc21` [compound 1047]: the “CYP (% negative controls) 2D6” value is 72 % negative controls.
For `CCC(CC)Oc1ccc2c(C(=O)NC3CCNCC3)n[nH]c2n1` [compound 726] the value was 72 % negative controls.
